Tests used:
[1] = tested on: blood GIP and triglyceride (TG) concentrations; experiment: Single-dose administration test in mice (lipid emulsion load after FABP4/5 inhibitor); assay type: in vivo, mice (C57BL/6J); details: 30 mg/kg body weight intragastric
Description: Mice (C57BL/6J, male, 9 weeks old, n=4 to 5, CLEA Japan, Inc.) were fasted for 18 hours and then given intragastric administration of the FABP4/5 inhibitor BMS309403 (30 mg/kg body weight) in a solvent (10% 1-methyl-2-pyrrolione, 5% cremophor, and 2% ethanol) or only the solvent (control) through feeding needles under anesthesia. After 30 minutes, intragastric administration of lipid emulsions (triolein; 2 mg/kg body weight) was given. Blood was collected from the orbital sinus before and 10, 30, and 60 minutes after the administration of lipid emulsions. The blood thus collected was centrifuged at 11,000 rpm, 4° C. for 10 minutes to prepare the plasma. The blood GIP and triglyceride (TG) concentrations were measured with a GIP ELISA kit (for rat/mouse) (Merck Millipore Corporation) and a triglyceride E-test Wako (Wako Pure Chemical Industries, Ltd.), respectively.

[2] = tested on: mouse model of type-II diabetes or arteriosclerosis; details: oral administration; Non Patent Literature 18; cited from earlier work
[3] = tested on: primary culture cells of the small intestine; experiment: FABP4/5 inhibition test: lipid micelle (PPM)-stimulated GIP secretion in primary culture cells of the small intestine; assay type: cell-based, C57BL/6J mice; details: inhibitor 10 or 25 μM, 30 min pre-incubation and 30 min PPM stimulation; compared to PPM group; FIG. 3
Description: C57BL/6J mice, 13 to 17 weeks old, were euthanized by cervical dislocation under anesthesia. The upper part of the small intestine (up to 10 cm immediately below the pylorus) was taken out and immersed in ice-cooled L-15 media (Sigma-Aldrich Co. LLC.). The small intestine was then transferred to ice-cooled PBS. Fat, blood vessels, etc. adhering to the intestinal tract were carefully removed. The inside of the lumen was washed with ice-cooled PBS and the tissue was cut into small pieces (pieces having an area of 2 mm^2 or smaller) with a scalpel. The small pieces were washed three to four times with PBS, to which 10 mL of DMEM (Sigma-Aldrich Co. LLC.) having Collagenase XI (Sigma-Aldrich Co. LLC.; 0.4 mg/mL) dissolved therein was added, followed by vigorous shaking for 10 seconds and then incubation at 37° C. for five minutes. The supernatants were then removed and 10 mL of the Collagenase solution was added again, followed by vigorous shaking for 10 seconds and then incubation at 37° C. for five minutes. […]
The media thus collected were centrifuged at 8,000 rpm, 4° C. for five minutes to obtain supernatants (secretion samples). […] GIP was quantitated in these samples with a GIP ELISA kit (for rat/mouse) (Merck Millipore Corporation) to obtain GIP secretion rates.

[4] = 30 min before lipid emulsion, compared to control group, FIG. 2B
[5] = 30 min before triolein lipid emulsion, blood at 10, 30, 60 min, compared to control (solvent) group, FIG. 2A

Which “Cmax of the blood GIP concentration” value [1, 4] does the source give for CCc1c(-c2ccccc2)c(-c2ccccc2)nn1-c1ccccc1-c1cccc(OCC(=O)O)c1 [BMS309403] here?
The value was “statistically significantly reduced”.

And the “iAUC (0-1 h) of the blood GIP concentration” value [1, 4]?
The value was “statistically significantly reduced”.

What about the “increase in the blood GIP concentration (ΔGIP) after the administration of lipid emulsions” value [1, 5] of the same compound?
Its value is “statistically significantly reduced”.

And the “increase in the blood TG concentration (ΔTG) after the administration of lipid emulsions” value [1, 5]?
The value was “statistically significantly reduced”.

And the “pathological condition in mouse model of type-II diabetes or arteriosclerosis” value [2]?
Its value is “Amelioration in the pathological condition”.

And the “increase in the GIP secretion rate of PPM-stimulated cells” value [3]?
The value was “dose-dependently suppressed”.
